Laboratory results reported in US7264956B2, “Compounds and methods for inhibiting axillary malodour” (Givaudan SA, priority 2001, dated 2007).
Entries after “also recorded” stand apart in the source; their conditions may differ. Read-outs that look alike come from different tables or passages of the source.

Tests used:
[1] = target: T1, purified enzyme obtained from E.coli Top 10/pBADgIII AMRE (Corynebacterium striatum, UniProt Q8GGD4); experiment: High throughput screening for inhibitors (fluorescamine assay of released L-glutamine); type: biochemical; conditions: substrate Nα-lauroyl-L-glutamine 0.05 mM; Ki calculated from IC50
T1 construct: made in house; host or cells: E. coli TOP10 (Invitrogen), vector pBADgIIIA, arabinose-induced
Description: Compounds, which inhibit an enzyme of the present invention reduce the activity of the enzyme and may lead to a significant reduction of the release of malodour acids from odourless fresh sweat. […] The activity of the compounds as inhibitors may be measured in terms of either their IC50 values or their Ki values, both of which measures are well known to the person skilled in the art. As is well known, the IC50 value provides the concentration of an inhibitor needed to reduce enzyme velocity by half at a given substrate concentration. This value is dependent on the affinity of the substrate for the enzyme which is reflected in the value Km of the substrate. In this way, the Ki value may be determined for a given substrate and a given substrate concentration by measuring IC50 and then calculating according to the following formula
Potential inhibitory compounds were dissolved in Buffer A and aliquots of the solutions of different inhibitors (10 μl) were distributed to individual wells of a white microtiter plate. Purified enzyme obtained from the strain E.coli Top 10/pBADgIII AMRE was diluted in Buffer A (200 pg/ml final concentration) and added to the inhibitory compounds. After 10 min preincubation, the substrate (Nα-lauroyl-L-glutamine) was added to the individual wells to a final concentration of 0.05 mM. After 15 min of incubation, the amino-group of the released L-glutamine was derivatised by adding to each well of the microtiter plate 50 μl of a fluorescamine stock solution (2.5 mM in acetonitrile; fluorescamine obtained from Fluka, Buchs, Switzerland). After 5 min the fluorescence in the wells of the microtiter plates was measured with an excitation wavelength of 360 nm and an emission wavelength of 460 nm. The fluorescence of control wells with enzyme, substrate and DMSO only was then compared to the fluorescence in wells containing potential inhibitors. By varying the inhibitor concentration, the IC50 value for each compound was determined, and the Ki values were calculated.

[2] = target: T2, purified enzyme from Corynebacterium striatum A×20 (Corynebacterium striatum, UniProt Q8GGD4); type: biochemical; conditions: for enzyme activity after incubation with serin-/cystein protease inhibitor: purified enzyme
T2 construct: an enzyme may be isolated from cellular extracts obtained from wild-type bacterial strains; endogenous in cells; host or cells: Corynebacterium striatum Ax20 (DSM 14267), mechanically disrupted; crude extract or chromatographically purified enzyme
Procedure: Corynebacterium striatum A×20 was selected to isolate and purify the enzyme responsible for the cleavage of the precursor Nα-3-hydroxy-3-methyl-hexanoyl-L-glutamine. The strain was grown during 48 h in Mueller-Hinton broth amended with 0.01% Tween 80. A total volume of 2 L of culture was harvested by centrifugation. The pellet was washed in Buffer A (50 mM NaCl; 50 mM NaH2PO4/K2HPO4 buffer at pH 7) and this buffer was used throughout the whole purification procedure. The cells were disrupted mechanically by vortexing them with glass beads (425–600 μm, Sigma, St-Louis, USA) during 30 min at maximal speed. The crude cell lysate was then fractionated by precipitation with an increasing concentration of (NH4)2SO4. […] This enriched sample was dissolved in Buffer A and then sequentially passed over four chromatography columns: DEAE Sepharose CL-6B anion exchange resin (Pharmacia, Uppsala, Sweden; elution with a linear gradient from 0 to 800 mM KCI); Phenyl-Sepharose hydrophobic interaction resin (Pharmacia; elution with a linear gradient from 1000 mM to 0 mM of (NH4)2SO4; Mono Q strong anion exchange column on the FPLC system (Pharmacia; elution with a gradient from 0 to 800 mM KCl) and finally Mono P weak anion exchange column on the FPLC (elution with a gradient from 0–800 mM KCl in a 50 mM Bis-Tris buffer instead of Buffer A). […] Finally, the enzyme was subjected to LC-ESI-MS/MS analysis after tryptic digestion and to analysis of its N-terminal amino acid sequence.

[3] = tested on: other Corynebacteria and some Staphylococci; experiment: Release of lauric acid from Nα-lauroyl-L-glutamine by axilla bacteria; type: cell-based; conditions: same experiment as Table 1, Nα-lauroyl-L-glutamine as substrate
Procedure: The axillary flora of 8 panellists was isolated with the detergent-scrub method: A 6 cm^2 area of the axilla was scrubbed with a phosphate buffer at pH 7 containing 1% Tween 80. The samples were spread-plated on tryptic soy agar amended with 5 g/L of Tween 80 and 1 g/L of lecithin. Single isolates obtained after 48 h incubation were subcultured and characterised. A total of 24 individual strains were identified based on colony and cell morphology, gram-reaction, lipophilic growth, lipase reaction and API identification kits (bioMerieux, France; coryneforms with the API coryne kit and cocci with the ID Staph 32 kit). The strains were grown overnight in a liquid medium (Mueller-Hinton amended with 0.01% Tween 80), harvested by centrifugation and resuspended to a final OD600 of 1 in a semi-synthetic medium (Per litre: 3 g KH2PO4, 1.9 g K2HPO4, 0.2 g yeast extract, 0.2 g MgSO4, 1.4 g NaCl, 1 g NH4Cl, 10 mg MnCl2, 1 mg Fe3Cl2, 1 mg CaCl2). […] The Corynebacteria which are able to conduct this biochemical reaction may be found in the group of the lipophilic and in the group of the non-lipophilic Corynebacteria. Therefore, a specific enzyme only present in some bacterial strains seems to be responsible for this cleavage. Since it releases axilla malodour the putative enzyme was named AMRE, which stands for ‘axillary malodour releasing enzyme’. […]

[4] = target: T3, enzyme extracted from Corynebacterium striatum A×20 (AMRE, Nα-acyl-glutamine-aminoacylase) (Corynebacterium striatum, UniProt Q8GGD4); experiment: Substrate specificity of the enzyme (capillary GC of released acid or alcohol); type: biochemical; conditions: for Cleavage by enzyme: 500 ppm in Buffer A, 24 h incubation
T3 construct: an enzyme may be isolated from cellular extracts obtained from wild-type bacterial strains; endogenous in cells; host or cells: Corynebacterium striatum Ax20 (DSM 14267), mechanically disrupted; crude extract or chromatographically purified enzyme
Procedure: To understand in detail the structural requirements of substrates, the enzyme extracted from Corynebacterium striatum A×20 was incubated with a wide variety of said compounds related to the originally isolated Nα-3-methyl-3-hydroxy-hexanoyl-L-glutamine present in sweat. Each compound was used at a concentration of 500 ppm in Buffer A, and analysis of released acid or alcohol was done by capillary GC after 24 h of incubation. First, different modifications at the N-terminus were tested.

[5] = target: T4, enzyme heterologously expressed in E. coli TOP10 (pBADgIIIAMRE) (Corynebacterium striatum, UniProt Q8GGD4); experiment: Enzyme assay with extracts of E. coli expressing the enzyme (release of lauric acid); type: biochemical; conditions: 500 ppm substrate
T4 construct: made in house; host or cells: E. coli TOP10 (Invitrogen), vector pBADgIIIA, arabinose-induced
Description: The full-length sequence of the open reading frame coding for the enzyme was amplified with PCR from chromosomal DNA of A×20 using specific primers (SEQ ID NO 14 and SEQ ID NO 15). The amplified DNA fragment was then digested with the restriction enzymes NcoI and Hind III It was then ligated into the vector pBADIIIA (Invitrogen, Groningen, The Netherlands) pre-digested with the same enzymes. The resulting plasmid pBADgIIIAMRE was transformed into the host strain E. coli TOP10 (Invitrogen). This strain was grown in LB broth until it reached an optical density of about 0.5 at 600 nm. The culture was induced with arabinose (0.2% final concentration) incubated for 4 h, harvested by centrifugation and disrupted by ultrasonication. Enzyme assays with Na-lauryl-Glutamine as substrate were performed in Buffer A with an incubation time of 1 h and a substrate concentration of 500 ppm. Table 3 gives the activity of extracts obtained from wild-type cells and from extracts of the induced and non-induced modified strains expressing the enzyme.

[6] = target: T5, isolated enzyme (extracts of A×20) (Corynebacterium striatum, UniProt Q8GGD4); experiment: Low throughput screening for inhibitors, isolated enzyme (released lauric acid by GC); type: biochemical; conditions: substrate Nα-lauroyl-L-glutamine, 2 h
T5 construct: an enzyme may be isolated from cellular extracts obtained from wild-type bacterial strains; endogenous in cells; host or cells: Corynebacterium striatum Ax20 (DSM 14267), mechanically disrupted; crude extract or chromatographically purified enzyme
Procedure: (§1) Extracts of A×20 were prepared by mechanical disruption as described in Example 3. The extract (0.5 ml corresponding to 2 ml initial cell culture) was added to 3.5 ml of Buffer A and amended with 40 μl of substrate (Nα-lauroyl-L-glutamine, 5% stock solution in methanol). Parallel samples were additionally amended with potential inhibitory compounds to give a final concentration of 0.5 and 5 mM. The samples were incubated for 2 h and then extracted with MTBE and HCI and analysed for released lauric acid using capillary GC. By comparing the samples containing potential inhibitory compounds with control samples with enzyme and substrate only, the inhibition (%) was calculated. The same assay was also made either with purified enzyme from the wild-type strain (see example 3) or with extracts from E.coli Top 10/pBADgIII AMRE induced with arabinose (see example 6). Furthermore, the same assay was made using stationary phase living cells of A×20 instead of an isolated enzyme preparation. In this case successful uptake of the inhibitors into the cells and inhibition are measured simultaneously.

[7] = target: T6, enzyme activity in living cells of A×20 (Corynebacterium striatum, UniProt Q8GGD4); experiment: Low throughput screening for inhibitors, stationary phase living cells of A×20; type: cell-based; conditions: 5 mM; substrate Nα-lauroyl-L-glutamine, 2 h
T6 construct: stationary phase living cells of A×20; endogenous in cells; host or cells: Corynebacterium striatum Ax20, stationary-phase living cells
Procedure: as §1

T2 sequence (Q8GGD4 2-400): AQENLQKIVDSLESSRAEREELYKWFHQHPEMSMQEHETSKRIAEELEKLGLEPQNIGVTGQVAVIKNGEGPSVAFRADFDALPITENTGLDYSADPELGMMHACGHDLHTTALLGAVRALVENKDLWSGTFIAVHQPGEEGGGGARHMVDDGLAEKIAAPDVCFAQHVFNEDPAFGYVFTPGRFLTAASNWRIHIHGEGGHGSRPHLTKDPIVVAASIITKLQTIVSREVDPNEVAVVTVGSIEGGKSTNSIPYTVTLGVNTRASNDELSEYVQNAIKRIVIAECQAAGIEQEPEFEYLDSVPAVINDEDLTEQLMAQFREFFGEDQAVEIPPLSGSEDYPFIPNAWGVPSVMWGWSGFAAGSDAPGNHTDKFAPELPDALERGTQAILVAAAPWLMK
T4 sequence (Q8GGD4 2-400): as above
T3 sequence (Q8GGD4 2-400): as above
T1 sequence (Q8GGD4 2-400): as above
T5 sequence (Q8GGD4 2-400): as above
T6 sequence (Q8GGD4 2-400): as above

## NC(=O)CC[C@H](NC(=O)[C@@H](S)Cc1ccccc1)C(=O)O [Compound 5a]
[1]
  Ki: 0.054 ± 0.001 µM

## CC(C)C[C@H](S)C(=O)N[C@@H](CCC(N)=O)C(=O)O [Compound 5b]
[1]
  Ki: 0.13 ± 0.01 µM

## CCCC[C@H](S)C(=O)N[C@@H](CCC(N)=O)C(=O)O [Compound 5c]
[1]
  Ki: 0.41 ± 0.02 µM

## NC(=O)CCC(CP(=O)(O)Cc1ccccc1)C(=O)O (stereo not shown) [Compound 8a]
[1]
  Ki: 0.05 ± 0.003 µM

## CC(C)CP(=O)(O)CC(CCC(N)=O)C(=O)O (stereo not shown) [Compound 8b]
[1]
  Ki: 0.058 ± 0.004 µM

## CCCCP(=O)(O)CC(CCC(N)=O)C(=O)O (stereo not shown) [Compound 8c]
[1]
  Ki: 0.11 ± 0.01 µM

## O=C(O)CN(CCN(CC(=O)O)CC(=O)O)CC(=O)O [EDTA]
[2]
  inhibition of the enzyme: completely inhibited

## CCCCCCCCCCCC(=O)N[C@@H](CCC(N)=O)C(=O)O [Nα-lauroyl-L-glutamine]
[3]
  release of lauric acid from substrate by axilla bacteria: can release lauric acid
[4]
  cleavage of substrate by enzyme (in words): able to be cleaved; also recorded: can cleave

## O=S(=O)(F)Cc1ccccc1 [PMSF, Phenylmethylsulfonylfluoride]
[2]
  enzyme activity after incubation with serin-/cystein protease inhibitor: retained all its activity

## NCCc1ccc(S(=O)(=O)F)cc1 [Pefabloc SC, 4-(2-aminoethyl)-benzenesulfonylfluoride]
[2]
  enzyme activity after incubation with serin-/cystein protease inhibitor: retained all its activity

## [Cl-].[Cl-].[Zn+2] [ZnCl2]
[2]; addition of 1 mM
  reversal of EDTA / o-phenantrolin inhibition: could be reversed

## CCCCCCCCCCCC(=O)N[C@@H](CCC(N)=O)C(=O)O [compound 2, Nα-lauroyl-L-glutamine]
[4]
  Cleavage by enzyme: +++ (+++ cleavage over 50%)
[5]; extract of E. coli Top 10 (wild-type), 4 h after induction
  release of lauric acid from Lauryl-Glutamine, 1 h incubation: below detection
[5]; extract of E. coli Top 10/pBADgIIIAMRE not induced
  release of lauric acid from Lauryl-Glutamine, 1 h incubation: 23 ppm
[5]; extract of E. coli Top 10 induced, 4 h after induction
  release of lauric acid from Lauryl-Glutamine, 1 h incubation: 329 ppm

## NC(=O)C[C@H](NC(=O)OCc1ccccc1)C(=O)O [compound 12, Carbobenzyloxy-L-asparagine]
[4]
  Cleavage by enzyme: −
other
  melting point: 102 to 104 °C

## c1cnc2c(c1)ccc1cccnc12 [o-phenantrolin]
[2]; 1 mM
  inhibition of the enzyme: completely inhibited
[6]; 0.5 mM
  % inhibition of the isolated enzyme: 100%
[6]; 5 mM
  % inhibition of the isolated enzyme: 100%
[7]
  % inhibition of enzyme activity in living cells: 90.3%
